Assay: xn = mol fraction of the nth substance listed
Conditions: 101 kPa

CNc1ccccc1 + CCCC[n+]1ccn(C)c1.F[B-](F)(F)F
speed of sound [m/s]
Conditions	x1 = 0.0974	x1 = 0.2093	x1 = 0.2979	x1 = 0.3968	x1 = 0.5009	x1 = 0.592	x1 = 0.697	x1 = 0.7972	x1 = 0.8999	x1 = 1
293.15 K	1578.7	–	–	1584.9	–	1594.9	1602.1	1601.6	1594.2	1582.7
303.15 K	1554.2	–	–	1560.6	1562	1566.3	1571.4	1570	1559.5	–
313.15 K	–	1531.6	1532.2	1534.8	–	1537.9	1540.1	1537.7	1524.9	1511.6
323.15 K	1507.2	1507.9	1508.4	1509.7	1510.5	–	–	1504.7	–	1476.4

CCCC[n+]1ccn(C)c1.F[B-](F)(F)F + CNc1ccccc1
x2 = 0
Conditions	speed of sound [m/s]
293.15 K	1577.5
303.15 K	1553.1
313.15 K	1529.6
323.15 K	1506.8

Source: a compilation of properties of binary mixtures (doi:10.1016/j.molliq.2016.05.033)
